# Read-outs that look alike come from different tables or passages of the source. *1 amine or outer side, *2 acyl side, *3 side chain or, on linkers, in order; H or OH if unused. Where a SMILES comes first, the peptide text is derived from it. Bridges are numbered along the chain shown (N, C = ends). [ ]: non-standard residue; d: D form. The star is where a group is joined. ξ: configuration not given here. Dab(3ξ-OH) = O=C([C@@H](N[*:1])C(O)CN[*:3])[*:2]; X1 = C/C=C(/N[*:1])C(=O)[*:2]; Lauroyl = CCCCCCCCCCCC(=O)*; Decanoyl = CCCCCCCCCC(=O)*; Nonanoyl = CCCCCCCCC(=O)*; Octanoyl = CCCCCCCC(=O)*; Dab = NCC[C@H](N)C(=O)O; X2 = CCCC/C=C\CCCC(=O)*
# Legend:
# [1] = tested on: E. coli ML35; assay type: cell-based, Escherichia coli
# Experimental: (§1) Antibacterial activity was assayed against a panel of micro-organisms including human and aquaculture pathogenic bacterial species. MICs were performed and defined according to internationally recognized standards (CLSI [21]). Polymyxin B (PMB), an antibiotic CLP produced by Paenibacillus polymyxa, was used as positive control. The major produced alterins, i.e., alt_952, alt_954, alt_970 and alt_980 were assayed against the whole panel of target cells while the minor ones were only tested against a few bacterial strains (Table 2).
# (§2) The bacterial strains Aeromonas caviae CIP 7616, Aeromonas hydrophila CIP 7614, Escherichia coli ML35, Escherichia coli SBS 363, Salmonella enterica CIP 8297 and Yersinia ruckeri ATCC 29473 were grown in Tryptic Soy Broth. The marine bacterial strains Vibrio crassostreaeJ2–9, Vibrio tasmaniensisLGP32, Vibrio tapetis CECT 4600 were grown in Marine Broth. All of them were cultivated at optimal temperature according to ATCC and CIP specifications. The strain Vibrio parahaemolyticus13-028A/3 was grown at 28 °C in Tryptic Soy Broth supplemented in NaCl (20 g.L^−1) according to [47]. The strains Pseudoalteromonas sp. hCg-6 and hCg-42 were cultured using a synthetic medium containing: 17.11 g sucrose, 30 g sea salts (Sigma-S9883), 7.6 g K2HPO4, 3 g KH2PO4 and 20 mL MEM 50X (Dulbecco) per liter. The cultures were grown at 18 °C for 72 h with shaking (100 rpm).
# (§3) MICs were determined using broth microdilution method according to [21]. To resume, antibacterial compounds ranging from 0.1 to 100 µM were assayed against the target bacteria in mid-logarithmic phase culture (1.10^6 UFC.mL^−1) in adapted culture medium according to the strain. MICs were examined by unaided eye after a 48h-incubation time at the optimal temperature growth. The lipopeptide PMB (Sigma-P4932) was used as antibiotic control.
# [2] = tested on: E. coli SBS363; assay type: cell-based, Escherichia coli; details: E. coli SBS363 (short-chain LPS); broth microdilution, 0.1 to 100 µM, 1.10^6 UFC/mL, 48 h, read by unaided eye
# Experimental: as §1, §2, §3
# [3] = tested on: S. enterica CIP 8297; assay type: cell-based, Salmonella enterica; details: broth microdilution, 0.1 to 100 µM, 1.10^6 UFC/mL, 48 h, read by unaided eye
# Experimental: as §1, §2, §3
# [4] = tested on: A. hydrophila CIP 7614; assay type: cell-based, Aeromonas hydrophila
# Experimental: as §1, §2, §3
# [5] = tested on: Y. ruckeri ATCC 29473; assay type: cell-based, Yersinia ruckeri
# Experimental: as §1, §2, §3
# [6] = tested on: Pseudoalteromonas hCg-6; assay type: cell-based, Pseudoalteromonas sp.; details: 48 h
# Experimental: as §1, §2, §3
# [7] = tested on: V. harveyi ORM4; assay type: cell-based, Vibrio harveyi
# Experimental: as §1, §3
# [8] = tested on: P. aeruginosa ATCC 27853; assay type: cell-based, Pseudomonas aeruginosa
# Experimental: as §1, §3
# [9] = tested on: V. tasmaniensis LGP 32; assay type: cell-based, Vibrio tasmaniensis; details: 48 h
# Experimental: as §1, §2, §3
# [10] = tested on: V. tapetis CECT 4600T; assay type: cell-based, Vibrio tapetis
# Experimental: as §1, §2, §3
# [11] = tested on: Vibrio tasmaniensis LGP32; assay: Membrane potential, DiBAC4(3) flow cytometry; assay type: cell-based
# Experimental: To assess alterin physiological impact on Gram-negative cells, flow cytometry analyses were implemented using Live/Dead cell viability assay and the membrane potential dye, DiBAC4(3) on V. tasmaniensis LGP32 treated as previously (i.e., […]).
# The membrane potential of the target bacteria was analysed using the potential-sensitive probe Bis-1,3-Dibutylbarbituric AcideTrimethineOxonol, (DiBAC4(3), MolecularProbes). DiBAC4(3) was reconstituted in DMSO stock solution at 1mM and stocked at −20 °C until use. Samples (500 µL) were incubated with 1 µL of DiBAC4(3) stock solution for 10mn in the dark. Under the effect of depolarization cells accumulate DiBAC4(3), fluoresce bright green and can easily be detected by flow cytometry. After excitation at 488 nm cells with depolarized membrane become fluorescent and reemit at 516 nm recovery of the signal at FL1. Positive control of the initial sample is carried out with 20% alcohol.
# [12] = tested on: V. tasmaniensis LGP32; assay: Viability (cultivability, CFU count) in seawater; assay type: cell-based, Vibrio tasmaniensis; details: for cultivability loss of V. tasmaniensis (log reduction of CFU): 20 µM, 4 h incubation in sterile seawater, inoculum 1.10^6 UFC/mL, plated in duplicate
# Experimental: As a first step, we have measured the antimicrobial activity of alt_952, alt_954, alt_970 and alt_980 against V. tasmaniensis LGP32 in seawater after a 4 hour-long incubation. […] The effects on membrane were also investigated under the same experimental conditions using live/dead bacterial viability kit for flow cytometry (Figure 6). A net cultivability loss of V. tasmaniensis (2-log reduction) was observed when incubated with alt_954 and alt_980 indicative of a bactericidal effect (Figure 7A). In these conditions, V. tasmaniensis was much less affected by alt_970 (1-log reduction) and not by alt_952 (Figure 7A).
# […] After a 4 h-long incubation, viable bacteria were counted. Diluted samples (50 µL) in sterile seawater were spread in duplicate on appropriate medium. Cultivable bacterial concentration (CFU mL^−1) was determined after overnight incubation at optimal growth temperature.
# [13] = tested on: Pseudoalteromonas hCg-42; assay type: cell-based, Pseudoalteromonas sp.; details: 48 h
# Experimental: as §1, §2, §3
# [14] = tested on: A. caviae CIP 7616; assay type: cell-based, Aeromonas caviae; details: broth microdilution, 0.1 to 100 µM, 1.10^6 UFC/mL, 48 h, read by unaided eye
# Experimental: as §1, §2, §3
# [15] = LPS binding, QCL-1000 chromogenic Limulus Amoebocyte Lysate (LAL) assay; parameters: species or system Escherichia coli; details: LPS 1 EU/mL pre-incubated with CLPs 0.01 to 10 µM, 15 min, 37 °C
# Description: To gain insights into LPS-alterin interactions, we used an endotoxin detection assay, the QCL-1000^TM Endpoint chromogenic Limulus Amoebocyte Lysate (LAL) assay (Lonza). We compared alt_954, alt_970 and alt_980 for their ability to bind LPS from E. coli O111:B4. All alterins bound to LPS in a dose-dependent manner, as indicated by the reduction of biologically active LPS with increasing alterins concentrations (Figure 4A). […] To examine alterin LPS-binding properties in more detail, we performed a surface plasmon resonance (SPR) assay using the Biacore technology (GE Healthcare). The SPR binding measurements were performed using the alt_954 and alt_970. PMB was used as a positive control. The CLPs were immobilized to a CM5 sensor chip surface and titrated with LPS. […] The dose-dependent effect observed (Figure 4B) highlights the LPS-binding properties of the alterins. Both LPS-binding assays, i.e., LAL and SPR, are fully agreeing for alt_954. Moreover, the LPS-binding properties of alterins followed the same general pattern as that of antibacterial activity.
# The CLPs were assayed for their LPS-binding properties by using the QCL-1000 Limulus Amoebocyte Lysate kit (LAL-Lonza, Bâle, Switzerland) according to manufacturer instructions. […] Free LPS was then quantified according to the manufacturer’s instructions. […]
# [16] = tested on: V. parahaemolyticus 13-028A/3; assay type: cell-based, Vibrio parahaemolyticus; details: broth microdilution, 0.1 to 100 µM, 1.10^6 UFC/mL, 48 h, read by unaided eye
# Experimental: as §1, §2, §3
# [17] = E. coli ML35 (long-chain LPS), broth microdilution, 0.1 to 100 µM, 1.10^6 UFC/mL, 48 h, read by unaided eye
# [18] = V. tapetis CECT 4600T, broth microdilution, 0.1 to 100 µM, 1.10^6 UFC/mL, 48 h, read by unaided eye
# [19] = A. hydrophila CIP 7614, broth microdilution, 0.1 to 100 µM, 1.10^6 UFC/mL, 48 h, read by unaided eye
# [20] = Y. ruckeri ATCC 29473, broth microdilution, 0.1 to 100 µM, 1.10^6 UFC/mL, 48 h, read by unaided eye
# [21] = Pseudoalteromonas hCg-6 (producing strain), broth microdilution, 0.1 to 100 µM, 1.10^6 UFC/mL, read by unaided eye
# [22] = Pseudoalteromonas hCg-42 (producing strain), broth microdilution, 0.1 to 100 µM, 1.10^6 UFC/mL, read by unaided eye
# [23] = V. harveyi ORM4, broth microdilution, 0.1 to 100 µM, 1.10^6 UFC/mL, 48 h, read by unaided eye
# [24] = P. aeruginosa ATCC 27853, broth microdilution, 0.1 to 100 µM, 1.10^6 UFC/mL, 48 h, read by unaided eye
# [25] = V. tasmaniensis LGP 32, broth microdilution, 0.1 to 100 µM, 1.10^6 UFC/mL, read by unaided eye
Compound,"MIC ([1]; ML35, 48 h)",MIC [2],MIC [3],"MIC ([4]; CIP 7614, 48 h)","MIC ([5]; ATCC 29473, 48 h)",MIC [6],"MIC ([7]; ORM4, 48 h)","MIC ([8]; ATCC 27853, 48 h)",MIC [9],cultivability loss of V. tasmaniensis (log reduction of CFU) [12],MIC [14],"MIC [1, 17]","MIC [10, 18]","MIC [4, 19]",MIC [16],"MIC [5, 20]","MIC [6, 21]","MIC [13, 22]","MIC [7, 23]","MIC [8, 24]",other results
C/C=C1/NC(=O)[C@@H](NC(=O)CCCCCCC)C(O)CNC(=O)[C@H](C(O)CN)NC(=O)[C@H](C(O)CN)NC(=O)[C@H](CCCNC(=N)N)NC(=O)[C@H](CC(C)C)NC(=O)[C@H](CCN)NC1=O (stereo partly shown) [alt_926] (Octanoyl-[Dab(3ξ-OH)][X1][Dab]LR[Dab(3ξ-OH)][Dab(3ξ-OH)]; lactam 1-C),100 µM,50 µM,12.5 µM,>100 µM,50 µM,>100 µM,50 µM,>100 µM,50 µM,–,–,–,–,–,–,–,–,–,–,–,–
C/C=C1/NC(=O)[C@@H](NC(=O)CCCCCCCC)C(O)CNC(=O)[C@H](C(O)CN)NC(=O)[C@H](C(O)CN)NC(=O)[C@H](CCCNC(=N)N)NC(=O)[C@H](CC(C)C)NC(=O)[C@H](CCN)NC1=O (stereo partly shown) [alt_940] (Nonanoyl-[Dab(3ξ-OH)][X1][Dab]LR[Dab(3ξ-OH)][Dab(3ξ-OH)]; lactam 1-C),50 µM,25 µM,–,25 µM,6.25 µM,>100 µM,6.25 µM,50 µM,6.25 µM,–,–,–,–,–,–,–,–,–,–,–,–
C/C=C1/NC(=O)[C@@H](NC(=O)CCC/C=C\CCCC)C(O)CNC(=O)[C@H](C(O)CN)NC(=O)[C@H](C(O)CN)NC(=O)[C@H](CCCNC(=N)N)NC(=O)[C@H](CC(C)C)NC(=O)[C@H](CCN)NC1=O (stereo partly shown) [alt_952] (X2-[Dab(3ξ-OH)][X1][Dab]LR[Dab(3ξ-OH)][Dab(3ξ-OH)]; lactam 1-C),25 µM,0.8 µM,6.25 µM,–,0.4 µM,>100 µM,12.5 µM,50 µM,50 µM,no antibacterial effect,–,–,–,–,–,–,–,–,–,–,"MIC ([10]; CECT 4600, 48 h): >100 µM; cells with depolarized membrane ([11]; 20 µM, 4 h in sterile seawater): around 55%; cells depolarization ([11]; 300 µM, 4 h in seawater): 100%; cultivability loss of V. tasmaniensis ([12]; 300 µM, 4 h in seawater (data not shown)): identical to those observed using alt_954 and alt_980 at 20 µM; MIC [13]: >100 µM"
C/C=C1/NC(=O)[C@@H](NC(=O)CCCCCCCCC)C(O)CNC(=O)[C@H](C(O)CN)NC(=O)[C@H](C(O)CN)NC(=O)[C@H](CCCNC(=N)N)NC(=O)[C@H](CC(C)C)NC(=O)[C@H](CCN)NC1=O (stereo partly shown) [alt_954] (Decanoyl-[Dab(3ξ-OH)][X1][Dab]LR[Dab(3ξ-OH)][Dab(3ξ-OH)]; lactam 1-C),–,0.2 µM,0.7 µM,–,–,–,–,–,–,2 log,5.5 µM,1.4 µM,>100 µM,2.7 µM,6.25 µM,0.3 µM,>100 µM,>100 µM,1.4 µM,22 µM,"LPS binding (reduction of biologically active LPS, LAL assay) [15]: more efficiently than alt_970; MIC [9, 25]: 2.7 µM"
C/C=C1/NC(=O)[C@@H](NC(=O)CCCCCCCCCCC)C(O)CNC(=O)[C@H](C(O)CN)NC(=O)[C@H](C(O)CN)NC(=O)[C@H](CCCNC(=N)N)NC(=O)[C@H](CC(C)C)NC(=O)[C@H](CCN)NC1=O (stereo partly shown) [alt_982] (Lauroyl-[Dab(3ξ-OH)][X1][Dab]LR[Dab(3ξ-OH)][Dab(3ξ-OH)]; lactam 1-C),–,6.3 µM,–,–,12.5 µM,–,–,–,–,–,–,–,–,–,–,–,–,–,–,–,–
"Polymyxin B [PMB, reference compound]",–,0.2 µM,0.8 µM,–,–,–,–,–,–,–,3.1 µM,3.1 µM,>100 µM,0.8 µM,>100 µM,0.4 µM,>100 µM,>100 µM,25 µM,1.6 µM,"MIC [9, 25]: 3 µM"
